Experimental data as given in US8198325B2, “Unsaturated alkyl esters of 5-aminolevulinic acid, their preparation and their use” (Industry Foundation of Chonnam National University, priority 2006, dated 2012).

Legend:
[1] = tested on: Human epidermal keratinocyte (HEK); assay: Cytotoxicity test (cell survival), MTT assay, HEK; type: cell-based; conditions: 24 hours; for MTT absorbance (OD): 570 nm; for Cell survival Avg (%) ± SD (%): Table 3; for activity at 10 µM / activity at 2000 µM / activity at 50 µM / activity at 100 µM / activity at 500 µM / activity at 1000 µM / activity at 5000 µM: Homo sapiens, Table 2, read-out: Cell survival (% of control C, in brackets); for activity at 10 µM: HEK001, 0.01 mM; for activity at 2000 µM: HEK2, 2 mM; for activity at 50 µM / activity at 100 µM / activity at 500 µM / activity at 1000 µM / activity at 5000 µM: Keratinocyte
Description: (§1) 3. Cytotoxicity Test (Cell Survival Test)
(§2) Cytotoxicity was conducted through an MTT assay (Chemicon, Serologicals Corporation, USA) as follows.
(§3) Cells were seeded at a density of 3×10^4 cells/well in 96-well plates (Nunc Do, Denmark).
(§4) When the cells were at a confluence of about 60˜70%, 24 hours after seeding, the media was exchanged for 100 μl of fresh, serum-free media containing various respective concentrations of ALA or ALA-ester, after which the cells were incubated for an additional 24 hours.
(§5) An MTT solution (0.5 mg/mL) was added in an amount of […] to each well, followed by incubation for 4 hours to form formazan crystals. A color-developing solution (isopropanol with 0.04 N HCl) was added in an amount of […] per well to solubilize the formazan crystals.
(§6) The plates were measured for absorbance at 570 nm using an ELISA reader (EMAX, Molecular Device, USA).
(1) Human Epidermal Keratinocyte (HEK)
Cell survival of the human epidermal keratinocytes treated with ALA esters of the present invention and with ALA was compared. The results are summarized in Tables 1 and 2, which are represented in different manners depending on the measurements.

[2] = tested on: Human dermal fibroblast (hF); assay: Cytotoxicity test (cell survival), MTT assay, hF; type: cell-based; conditions: 24 hours
Description: as §1, §2, §3, §4, §5, §6
(2) Human Dermal Fibroblast (hF)

[3] = tested on: Squamous cell carcinoma (A431); assay: Cytotoxicity test (cell survival), MTT assay, A431; type: cell-based; conditions: 24 hours
Description: as §1, §2, §3, §4, §5, §6
(3) Squamous Cell Carcinoma (A431)

[4] = tested on: Malignant melanoma (TMX 13); assay: Cytotoxicity test (cell survival), MTT assay, TXM 13; type: cell-based; conditions: 24 hours
Description: as §1, §2, §3, §4, §5, §6
(4) Malignant Melanoma (TMX 13)

[5] = tested on: A431 cells; assay: Fluorescence spectroscopy of PpIX synthesis in A431 cells (FIG. 1); type: cell-based; conditions: 4 hours incubation, excitation 405 nm, emission 605 nm
Description: (§7) 4. Fluorescence Spectroscopy
(§8) The synthesis of PpIX, induced by ALA and unsaturated alkyl esters of ALA in cells and skin tissues, was quantified using fluorescence spectroscopy.
(§9) The intensity of PpIX was measured on a fluorescence spectrophotometer (Uvikon, model 943) with excitation at 408 nm.
(§10) Each cell line was plated at a density of 2×10^5 cells in a 10 cm^2-dish (Falcon), and when the cells reached a confluent state of 70˜80%, serum-free media containing various concentrations (0.001˜1 mM) of ALA or ALA esters was added to the cells, followed by incubation for 4 hours.
(§11) After being washed once with PBS, the cells were detached with a 50% methanol solution containing 1M […] (HClO4) and scraped off using a Costar cell scraper.
(§12) The cells thus harvested were incubated for 5 min and centrifuged.
(§13) The fluorescence of the supernatant thus obtained was determined using a spectrofluorometer with excitation at 405 nm and emission at 605 nm.
(§14) The results are graphed in FIGS. 1 and 2.

[6] = tested on: skin of ICR mice (epidermis, sebaceous gland); assay: Cell death in skin tissue after ointment and LED irradiation, H&E (FIGS. 9, 10); type: in vivo; conditions: for Sebaceous gland morphology after irradiation: 24 hours after visible light 25 J/cm^2, FIG. 10
Description: Ointments comprising ALA or the ALA esters of the present invention at various concentrations (5˜15%) were applied in a predetermined amount ([…]) to the back of shaved ICR mice.
1 and 4 hours after the application, the back was irradiated with LED visible light (dose 25 J/cm^2).
24, 48 and 72 hours after the irradiation, skin samples were taken from the back of the mice, stained with hematoxylin-eosin (H&E) and observed for cell death.

[7] = tested on: all of the cells except for HEK (hF, A431, TXM 13); assay: Cytotoxicity test (MTT), summary for all of the cells except for HEK; type: cell-based; conditions: text summary of the tables
Description: as §1, §2, §3, §4, §5, §6

[8] = tested on: human epithelium keratocyte (HEK), human dermal fibroblast (hF), squamous cell carcinoma (A431), malignant melanoma (TXM13); assay: Fluorescence spectroscopy of PpIX synthesis in all cell lines (FIG. 2); type: cell-based; conditions: range from 0.01 to 1 mM, 4 hours incubation
Description: as §7, §8, §9, §10, §11, §12, §13, §14

[9] = tested on: human epidermal keratinocyte (HEK), human dermal fibroblast (hF), squamous cell carcinoma (A431), malignant melanoma (TXM 13); assay: Fluorescence microscopy of PpIX in cell lines (FIG. 5); type: cell-based; conditions: normal and cancer cell lines, fluorescence microscope
Description: 5. Observation Under Fluorescence Microscope
Each cell line and ICR mouse skin tissue were treated with the ALA esters of the present invention, and the regions where PpxIX was expressed were observed under a fluorescence microscope.
The normal cell lines, human epidermal keratinocytes (HEK) and human dermal fibroblasts (hF) and the cancer cell lines squamous cell carcinoma A431 and malignant melanoma TXM13 were treated with […] of the ALA esters of the present invention or ALA, followed by monitoring the fluorescence of the synthesized PpIX under a fluorescence microscope.

[10] = tested on: Each cell line; assay: Apoptosis and cell death by Annexin V-FITC/PI flow cytometry after visible light (FIG. 8); type: cell-based
Description: 6. Research into Apoptosis and Cell Death A. Cell Line Each cell line cultured in 6-well plates was treated with ALA or ALA esters of the present invention, irradiated with visible light from an LED, and stained with Annexin V-FITC and PI (Annexin V-FITC Apoptosis detection Kit, BD) before the measurement of apoptosis using flow cytometry (FACSCalibur, BD, USA).

## C=CCCCCOC(=O)CCC(=O)CN [ALA-6, 5-Aminolevulinic acid 5-hexenyl ester]
[1]; 0.01 mM
  MTT absorbance (OD): 3.13 OD
  Cell survival Avg (%) ± SD (%): 106.44 ± 0.37%
[1]; 0.05 mM
  MTT absorbance (OD): 3.413 OD
  Cell survival Avg (%) ± SD (%): 77.97 ± 0.88%
  activity at 50 µM: 99.4%
[1]; 0.1 mM
  MTT absorbance (OD): 3.18 OD
  Cell survival Avg (%) ± SD (%): 69 ± 3.42%
  activity at 100 µM: 92.7%
[1]; 0.5 mM
  MTT absorbance (OD): 2.521 OD
  Cell survival Avg (%) ± SD (%): 61.39 ± 3.22%
  activity at 500 µM: 73.4%
[1]; 1 mM
  MTT absorbance (OD): 2.548 OD
  Cell survival Avg (%) ± SD (%): 62 ± 5.58%
  activity at 1000 µM: 74.3%
[1]; 2 mM
  MTT absorbance (OD): 2.306 OD
  Cell survival Avg (%) ± SD (%): 62 ± 1.59%
[1]; 5 mM
  MTT absorbance (OD): 1.388 OD
  activity at 5000 µM: 40.2%
[1]
  activity at 10 µM: 91.2%
  activity at 2000 µM: 67.3%
[2]; 0.01 mM
  Cell survival Avg (%) ± SD (%): 113.29 ± 13.51%
[2]; 0.05 mM
  Cell survival Avg (%) ± SD (%): 98.47 ± 13.03%
[2]; 0.1 mM
  Cell survival Avg (%) ± SD (%): 92.42 ± 13.86%
[2]; 0.5 mM
  Cell survival Avg (%) ± SD (%): 91.41 ± 9.04%
[2]; 1 mM
  Cell survival Avg (%) ± SD (%): 80.78 ± 5.6%
[2]; 2 mM
  Cell survival Avg (%) ± SD (%): 86.12 ± 5.37%
[3]; A431, 0.01 mM
  Cell survival Avg (%) ± SD (%): 101.04 ± 0.88%
[3]; A431, 0.05 mM
  Cell survival Avg (%) ± SD (%): 91.32 ± 3.42%
[3]; A431, 0.1 mM
  Cell survival Avg (%) ± SD (%): 86.8 ± 3.22%
[3]; A431, 0.5 mM
  Cell survival Avg (%) ± SD (%): 84.16 ± 5.58%
[3]; A431, 1 mM
  Cell survival Avg (%) ± SD (%): 88.47 ± 4.59%
[3]; A431, 2 mM
  Cell survival Avg (%) ± SD (%): 66.21 ± 4.43%
[4]; TXM 13, 0.01 mM
  Cell survival Avg ± SD (%): 92.05 ± 9.09%
[4]; TXM 13, 0.05 mM
  Cell survival Avg ± SD (%): 99.41 ± 8.25%
[4]; TXM 13, 0.1 mM
  Cell survival Avg ± SD (%): 81.45 ± 6.38%
[4]; TXM 13, 0.5 mM
  Cell survival Avg ± SD (%): 77.18 ± 8.17%
[4]; TXM 13, 1 mM
  Cell survival Avg ± SD (%): 76.06 ± 6.81%
[4]; TXM 13, 2 mM
  Cell survival Avg ± SD (%): 53.24 ± 6.8%
[5]
  PpIX synthesis compared with ALA: greater PpIX synthesis in A431 cells than did ALA
[6]
  Sebaceous gland morphology after irradiation: destroyed partially or wholly
[6]; 48 hours after visible light 25 J/cm^2, FIGS. 9B and 9C
  Epidermis histology (H&E) after irradiation: both necrosis and rejuvenation

## NCC(=O)CCC(=O)O [ALA, 5-Aminolevulinic acid]
[1]; 0.01 mM
  MTT absorbance (OD): 3.428 OD
  Cell survival Avg (%) ± SD (%): 131.83 ± 0.9%
[1]; 0.05 mM
  MTT absorbance (OD): 3.318 OD
  Cell survival Avg (%) ± SD (%): 112.32 ± 0.7%
  activity at 50 µM: 94.5%
[1]; 0.1 mM
  MTT absorbance (OD): 3.457 OD
  Cell survival Avg (%) ± SD (%): 132.21 ± 0.35%
  activity at 100 µM: 98.5%
[1]; 0.5 mM
  MTT absorbance (OD): 3.285 OD
  Cell survival Avg (%) ± SD (%): 103.43 ± 0.15%
  activity at 500 µM: 92.8%
[1]; 1 mM
  MTT absorbance (OD): 2.802 OD
  Cell survival Avg (%) ± SD (%): 100.94 ± 6.16%
  activity at 1000 µM: 79.7%
[1]; 2 mM
  MTT absorbance (OD): 2.179 OD
  Cell survival Avg (%) ± SD (%): 84.9 ± 5.12%
[1]; 5 mM
  MTT absorbance (OD): 1.659 OD
  activity at 5000 µM: 47.2%
[1]
  activity at 10 µM: 97.6%
  activity at 2000 µM: 62.1%
[2]; 0.01 mM
  Cell survival Avg (%) ± SD (%): 109.74 ± 11.55%
[2]; 0.05 mM
  Cell survival Avg (%) ± SD (%): 125.18 ± 14.08%
[2]; 0.1 mM
  Cell survival Avg (%) ± SD (%): 125.27 ± 16.1%
[2]; 0.5 mM
  Cell survival Avg (%) ± SD (%): 95.218 ± 9.47%
[2]; 1 mM
  Cell survival Avg (%) ± SD (%): 99.89 ± 18.3%
[2]; 2 mM
  Cell survival Avg (%) ± SD (%): 97.66 ± 9.45%
[3]; A431, 0.01 mM
  Cell survival Avg (%) ± SD (%): 102.99 ± 0.71%
[3]; A431, 0.05 mM
  Cell survival Avg (%) ± SD (%): 104.98 ± 0.35%
[3]; A431, 0.1 mM
  Cell survival Avg (%) ± SD (%): 106.79 ± 0.15%
[3]; A431, 0.5 mM
  Cell survival Avg (%) ± SD (%): 81.6 ± 6.16%
[3]; A431, 1 mM
  Cell survival Avg (%) ± SD (%): 84.17 ± 5.12%
[3]; A431, 2 mM
  Cell survival Avg (%) ± SD (%): 82.63 ± 2.44%
[4]; TXM 13, 0.01 mM
  Cell survival Avg ± SD (%): 100 ± 10.22%
[4]; TXM 13, 0.05 mM
  Cell survival Avg ± SD (%): 93.12 ± 5.82%
[4]; TXM 13, 0.1 mM
  Cell survival Avg ± SD (%): 86.66 ± 6.95%
[4]; TXM 13, 0.5 mM
  Cell survival Avg ± SD (%): 83.75 ± 9.57%
[4]; TXM 13, 1 mM
  Cell survival Avg ± SD (%): 89.91 ± 6.33%
[4]; TXM 13, 2 mM
  Cell survival Avg ± SD (%): 93.6 ± 5.13%
[7]
  Cell survival: ≥ 70%
[8]
  PpIX synthesis, dose dependence: increase in a dose-dependent manner
[9]
  PpIX fluorescence in cytoplasm: can induce the synthesis of PpIX in both normal and cancer cell lines
[10]; 1 mM, then irradiation 5-20 J/cm^2, FIGS. 8C and D
  Photo-induced apoptosis (Annexin V/PI): induced the cells to undergo apoptosis (Annexin V+/PI−) or the late stage of apoptosis (Annexin V+/PI+)
[10]; treated but with no irradiation with visible light, FIGS. 8A and B
  Cell survival (flow cytometry): ≥ 85%
[6]; 24 hours after visible light 25 J/cm^2, FIG. 9A
  Epidermis histology (H&E) after irradiation: apoptosis or necrosis of the epidermis
[6]
  Sebaceous gland morphology after irradiation: destroyed partially or wholly
